According to patent publication US20240208992A1, “MACROCYCLES AS CFTR MODULATORS” (Idorsia Pharmaceuticals Ltd, priority 2021, published 2024):
Like-named read-outs stand apart in the source and are kept apart here.

Assays:
[1] = the molecule shown is the open-chain precursor; amide bond; 17-membered ring; 2 steps
[2] = amide bond
[3] = amide bond, 17-membered ring
human F508del-CFTR = human F508del-CFTR (Homo sapiens, UniProt P13569, DEL508-508); experiment: F508del-CFTR cell surface expression (corrector activity), DiscoveRx ß-galactosidase complementation chemiluminescence assay in recombinant U2OS cell line; conditions: for EC50: EC50, F508del-CFTR cell surface expression; for Emax: U2OS;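 on all read-outs here: U2OS cells co-expressing ProLink-tagged F508del-CFTR and a membrane-anchored enzyme acceptor, where more surface CFTR restores β-galactosidase activity measured by chemiluminescence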
Sequence of human F508del-CFTR (P13569 with tags, fused parts or gaps DEL508-508): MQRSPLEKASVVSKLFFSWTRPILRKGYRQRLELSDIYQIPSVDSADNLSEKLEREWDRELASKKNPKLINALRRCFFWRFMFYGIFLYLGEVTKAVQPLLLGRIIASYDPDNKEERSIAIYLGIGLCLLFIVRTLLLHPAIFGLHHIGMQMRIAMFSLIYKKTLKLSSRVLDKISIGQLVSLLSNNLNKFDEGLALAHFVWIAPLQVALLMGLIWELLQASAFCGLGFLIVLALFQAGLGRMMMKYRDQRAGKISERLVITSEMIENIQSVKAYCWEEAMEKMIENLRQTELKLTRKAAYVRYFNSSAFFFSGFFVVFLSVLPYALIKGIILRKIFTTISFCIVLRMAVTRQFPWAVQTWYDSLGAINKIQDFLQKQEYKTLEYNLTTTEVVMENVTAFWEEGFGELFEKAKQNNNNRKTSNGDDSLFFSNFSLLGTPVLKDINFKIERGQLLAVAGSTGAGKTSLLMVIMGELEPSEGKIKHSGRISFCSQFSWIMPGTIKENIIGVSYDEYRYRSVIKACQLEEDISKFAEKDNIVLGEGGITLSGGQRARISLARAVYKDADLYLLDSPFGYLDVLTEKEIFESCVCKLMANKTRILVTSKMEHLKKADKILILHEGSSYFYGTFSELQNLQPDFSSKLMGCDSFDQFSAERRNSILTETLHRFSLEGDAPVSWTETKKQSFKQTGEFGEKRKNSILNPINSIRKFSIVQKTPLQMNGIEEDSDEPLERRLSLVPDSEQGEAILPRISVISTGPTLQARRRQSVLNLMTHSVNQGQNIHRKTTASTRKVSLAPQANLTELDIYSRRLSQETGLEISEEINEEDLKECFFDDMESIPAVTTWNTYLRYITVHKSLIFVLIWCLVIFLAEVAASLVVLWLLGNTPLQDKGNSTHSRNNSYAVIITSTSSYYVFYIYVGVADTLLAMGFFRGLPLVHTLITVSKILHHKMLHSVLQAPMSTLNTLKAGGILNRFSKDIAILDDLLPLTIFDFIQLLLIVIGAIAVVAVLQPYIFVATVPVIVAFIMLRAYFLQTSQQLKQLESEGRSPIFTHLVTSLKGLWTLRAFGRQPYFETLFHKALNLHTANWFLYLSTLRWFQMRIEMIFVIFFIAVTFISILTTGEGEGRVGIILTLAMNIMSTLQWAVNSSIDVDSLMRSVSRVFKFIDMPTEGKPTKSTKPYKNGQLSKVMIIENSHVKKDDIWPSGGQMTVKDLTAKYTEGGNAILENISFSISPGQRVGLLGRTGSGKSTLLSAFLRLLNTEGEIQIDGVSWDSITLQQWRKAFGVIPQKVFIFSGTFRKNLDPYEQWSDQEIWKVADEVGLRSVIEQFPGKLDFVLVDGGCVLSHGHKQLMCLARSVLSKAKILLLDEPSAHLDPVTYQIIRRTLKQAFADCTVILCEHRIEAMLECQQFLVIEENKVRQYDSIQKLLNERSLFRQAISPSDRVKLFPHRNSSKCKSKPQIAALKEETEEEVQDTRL

[4] = U2OS cells, 16h compound incubation, geomean of several measurements
[5] = in relation to the Emax of the corrector lumacaftor (=100%), U2OS cells, 16h compound incubation, arithmetic mean

| EC50 (human F508del-CFTR; [4]) [nM] | Emax (human F508del-CFTR; [5]) [%] | Molecule | also measured |
| --- | --- | --- | --- |
|  |  | CC(C)C[C@@H](C(=O)N1CCCC[C@@H]1C(=O)N[C@@H](COc1cnc2ccccc2c1C(=O)N[C@@H](CC(=O)OC(C)(C)C)C(=O)OCc1ccccc1)Cc1ccccc1)N(C)C(=O)OC(C)(C)C | ring closure, isolated yield [1]: 58% |
|  |  | CC(C)C[C@H]1C(=O)N(CCC(C)(C)C)CC(=O)N[C@H](Cc2ccccc2)COc2cc3c(cc2C(=O)N[C@H](C(=O)O)CC(=O)N1C)OCO3 | ring closure, yield of all isomers ([2]; from CN[C@@H](CC(C)C)C(=O)N(CCC(C)(C)C)CC(=O)N[C@@H](COc1cc2c(cc1C(=O)N[C@@H](CC(=O)O)C(=O)O)OCO2)Cc1ccccc1, pentafluorophenyl diphenylphosphinate (FDPP), DMF/DCM, 67.5 mM, 5.0 h, 11 steps): 26% |
|  |  | CC(C)C[C@H]1C(=O)N(C[C@H]2COc3ccccc3C2)CC(=O)N[C@H](Cc2ccccc2)COc2ccc3ccccc3c2C(=O)N[C@H](C(=O)NCCc2ccc3c(c2)OCO3)CC(=O)N1C | ring closure, yield after HPLC ([3]; from CN[C@@H](CC(C)C)C(=O)N(CC(=O)N[C@@H](COc1ccc2ccccc2c1C(=O)N[C@@H](CC(=O)O)C(=O)NCCc1ccc2c(c1)OCO2)Cc1ccccc1)C[C@H]1COc2ccccc2C1, HATU/DIEA, DMF, 82.0 mM, 25.0 °C): 97% |
|  |  | COc1cc2c(cc1OC)C(=O)N[C@H](C(=O)OCc1ccccc1)CC(=O)N(C)[C@@H](CC1CC1)C(=O)N(CCC1CCCCC1)CC(=O)N[C@H](Cc1ccccc1)CO2 | ring closure, yield after HPLC ([3]; from CN[C@@H](CC1CC1)C(=O)N(CCC1CCCCC1)CC(=O)N[C@@H](COc1cc(OC)c(OC)cc1C(=O)N[C@@H](CC(=O)O)C(=O)OCc1ccccc1)Cc1ccccc1, FDPP, DCM, 50.0 °C): 13%; ring closure, yield of all isomers ([2]; from CN[C@@H](CC1CC1)C(=O)N(CCC1CCCCC1)CC(=O)N[C@@H](COc1cc(OC)c(OC)cc1C(=O)N[C@@H](CC(=O)O)C(=O)OCc1ccccc1)Cc1ccccc1, FDPP, DCM, 50.0 °C, 12.0 h): 13% |
|  |  | COc1nccc2c1C(=O)N[C@H](C(=O)NCCc1nc(C3CC3)no1)CC(=O)N(C)[C@@H](CC(C)C)C(=O)N(C)C(COCc1ccccc1)C(=O)N[C@H](Cc1ccccc1)CO2 (stereo partly shown) | ring closure, yield after HPLC ([3]; from CN[C@@H](CC(C)C)C(=O)N(C)C(COCc1ccccc1)C(=O)N[C@@H](COc1ccnc(OC)c1C(=O)N[C@@H](CC(=O)O)C(=O)NCCc1nc(C2CC2)no1)Cc1ccccc1, HATU/DIEA, DMF, 60.0 mM): 82% |
|  |  | COc1cccc(CCNC(=O)[C@@H]2CC(=O)N(C)[C@@H](CC(C)C)C(=O)N(C)[C@H](COCc3ccccc3)C(=O)N[C@H](Cc3ccccc3)COc3ccc4ccccc4c3C(=O)N2)c1 [Example 713, (3S,7S,10R,13R)-13-benzyl-10-((benzyloxy)methyl)-7-isobutyl-N-(3-methoxyphenethyl)-6,9-dimethyl-1,5,8,11-tetraoxo-1,2,3,4,5,6,7,8,9,10,11,12,13,14-tetradecahydronaphtho[1,2-p][1]oxa[4,7,10,14]tetraazacycloheptadecine-3-carboxamide] | ring closure, yield after HPLC ([3]; from CN[C@@H](CC(C)C)C(=O)N(C)[C@H](COCc1ccccc1)C(=O)N[C@@H](COc1ccc2ccccc2c1C(=O)N[C@@H](CC(=O)O)C(=O)NCCc1cccc(OC)c1)Cc1ccccc1, HATU/DIEA, DMF, 41.0 mM, 25.0 °C): 82%; EC50 (human F508del-CFTR; U2OS cells, 16h compound incubation, geomean values): 31 nM; Emax (human F508del-CFTR; in relation to Emax of corrector lumacaftor (=100%), arithmetic mean values): 432% |
| 129 | 457 | COc1cc(OCC[C@@H]2C(=O)N[C@H](Cc3ccccc3)COc3cc(C)nc(OC)c3C(=O)N[C@H](C(=O)NCCc3cc(OC)no3)CC(=O)N(C)[C@@H](CC(C)C)C(=O)N2C)ccn1 [Example 978, (3R,6R,9S,13S)-3-benzyl-9-isobutyl-16-methoxy-N-(2-(3-methoxyisoxazol-5-yl)ethyl)-6-(2-((2-methoxypyridin-4-yl)oxy)ethyl)-7,10,18-trimethyl-5,8,11,15-tetraoxo-2,3,4,5,6,7,8,9,10,11,12,13,14,15-tetradecahydropyrido[3,4-p][1]oxa[4,7,10,14]tetraazacycloheptadecine-13-carboxamide] |  |
| 209 | 394 | COc1cc(CCNC(=O)[C@@H]2CC(=O)N(C)[C@@H](CC(C)C)C(=O)N(C)[C@H](CC3CC3)C(=O)N[C@H](Cc3ccccc3)COc3cc(C)nc(OC)c3C(=O)N2)on1 [Example 979, (3R,6R,9S,13S)-3-benzyl-6-(cyclopropylmethyl)-9-isobutyl-16-methoxy-N-(2-(3-methoxyisoxazol-5-yl)ethyl)-7,10,18-trimethyl-5,8,11,15-tetraoxo-2,3,4,5,6,7,8,9,10,11,12,13,14,15-tetradecahydropyrido[3,4-p][1]oxa[4,7,10,14]tetraazacycloheptadecine-13-carboxamide] |  |
| 53 | 435 | COc1cc(CCNC(=O)[C@@H]2CC(=O)N(C)[C@@H](CC(C)C)C(=O)N(C)[C@H](CC3CCC3)C(=O)N[C@H](Cc3ccccc3)COc3cc(C)nc(OC)c3C(=O)N2)on1 [Example 980, (3R,6R,9S,13S)-3-benzyl-6-(cyclobutylmethyl)-9-isobutyl-16-methoxy-N-(2-(3-methoxyisoxazol-5-yl)ethyl)-7,10,18-trimethyl-5,8,11,15-tetraoxo-2,3,4,5,6,7,8,9,10,11,12,13,14,15-tetradecahydropyrido[3,4-p][1]oxa[4,7,10,14]tetraazacycloheptadecine-13-carboxamide] |  |
| 133 | 448 | COc1cc(CCNC(=O)[C@@H]2CC(=O)N(C)[C@@H](CC(C)C)C(=O)N(C)[C@H](Cc3nc(C(F)(F)F)no3)C(=O)N[C@H](Cc3ccccc3)COc3c[n+]([O-])c4ccc(F)cc4c3C(=O)N2)on1 [Example 981, (3S,7S,10R,13R)-13-benzyl-20-fluoro-7-isobutyl-3-((2-(3-methoxyisoxazol-5-yl)ethyl)carbamoyl)-6,9-dimethyl-1,5,8,11-tetraoxo-10-((3-(trifluoromethyl)-1,2,4-oxadiazol-5-yl)methyl)-1,2,3,4,5,6,7,8,9,10,11,12,13,14-tetradecahydro-[1]oxa[4,7,10,14]tetraazacycloheptadecino[17,16-c]quinoline 17-oxide] |  |
| 236 | 530 | COc1cc(CCNC(=O)[C@@H]2CC(=O)N(C)[C@@H](CC(C)C)C(=O)N(C)[C@H](Cc3nc(C(F)(F)F)no3)C(=O)N[C@H](Cc3ccccc3)COc3cc(C)c4c(ccc[n+]4[O-])c3C(=O)N2)on1 [Example 982, (3S,7S,10R,13R)-13-benzyl-7-isobutyl-3-((2-(3-methoxyisoxazol-5-yl)ethyl)carbamoyl)-6,9,17-trimethyl-1,5,8,11-tetraoxo-10-((3-(trifluoromethyl)-1,2,4-oxadiazol-5-yl)methyl)-1,2,3,4,5,6,7,8,9,10,11,12,13,14-tetradecahydro-[1]oxa[4,7,10,14]tetraazacycloheptadecino[16,17-f]quinoline 18-oxide] |  |
| 270 | 506 | COc1noc(CCNC(=O)[C@@H]2CC(=O)N(C)[C@@H](CC(C)C)C(=O)N(C)[C@H](Cc3nc(C(F)(F)F)no3)C(=O)N[C@H](Cc3ccccc3)COc3ccc4c(cc(F)c[n+]4[O-])c3C(=O)N2)n1 [Example 983, (3S,7S,10R,13R)-13-benzyl-20-fluoro-7-isobutyl-3-((2-(3-methoxy-1,2,4-oxadiazol-5-yl)ethyl)carbamoyl)-6,9-dimethyl-1,5,8,11-tetraoxo-10-((3-(trifluoromethyl)-1,2,4-oxadiazol-5-yl)methyl)-1,2,3,4,5,6,7,8,9,10,11,12,13,14-tetradecahydro-[1]oxa[4,7,10,14]tetraazacycloheptadecino[16,17-f]quinoline 18-oxide] |  |
|  |  | (7R,13S,17S)-7-Benzyl-11-(3,3-dimethylbutyl)-13-isobutyl-14-methyl-9,12,15,19-tetraoxo-6,7,8,9,10,11,12,13,14,15,16,17,18,19-tetradecahydro-[1,3]dioxolo[4′,5′:4,5]benzo[1,2-p][1]oxa[4,7,10,14]tetraazacycloheptadecine-17-carboxylic acid | ring closure, yield after HPLC ([3]; FDPP, DMF/DCM, resin, 67.5 mM, with chain assembly): 26% |
